Experimental data as given in patent US20130096160A1, “ARYLTHIAZOLYL PIPERIDINES AND RELATED COMPOUNDS AS MODULATORS OF SURVIVAL MOTOR NEURON (SMN) PROTEIN PRODUCTION” (Secretary, Department of Health and Human Services, priority 2010, published 2013).

Experiments:
[1] = tested on: human SMN protein; experiment: Western blot of SMN protein in SMA patient fibroblasts (3813); assay type: cell-based; details: SMA patient cells (3813), 0.1-10 μM, FIG. 2
Protocol: Type I spinal muscular atrophy (SMA)-affected human primary fibroblasts (#GM03813) and carrier parents (#GM03814, parent and #GM03815, […]) are obtained live with low passage number from Coriell Cell Repositories. […] For detection of SMN protein in patient fibroblasts, 8,000 cells per cm^2 are plated 24 hours prior to drug addition. Fresh media and compound are added every 24 hours. After 72 hours, cells are harvested, washed with cold PBS, and lysed. Samples are subjected to polyacrylamide gel electrophoresis (PAGE). It is determined that 10 μg total protein per lane is within the linear range for immunoblot detection of SMN and alpha-tubulin. Western blots of the gel are probed for SMN with the 4B7 mouse monoclonal antibody (from the lab of Christian Lorson). A goat anti-mouse antibody (Santa Cruz Biotechnology/#sc-2005) conjugated to horseradish peroxidase (HRP) is used as the secondary antibody. Quantification of protein is performed by detecting chemiluminescence with a Fujifilm LAS-4000 Multifunctional Imaging System. […] We incubated a fibroblast cell line from a type I SMA patient (3813 cell line) with different doses of analogues and assessed the SMN protein level by quantitative western blotting (FIG. 4). We observed that analogue 8 m at concentration of 37 nanomolar increased the SMN protein level by 2-3 fold. […] This could be due with the intrinsic mechanism of action or to other causes, such us concentration dependent compound solubility.

[2] = tested on: SMN2-luciferase reporter; experiment: SMN2-luciferase reporter qHTS assay; assay type: cell-based, human; details: SMN2-luc reporter, FIG. 1
In short: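 SMN2 exon-7 splicing firefly-luciferase reporter cell line, ~2000 cells/well in phenol-red-free DMEM with 10% serum, allowed to adhere 10–12 h, then exposed to compounds for 2 days at 37 C, 5% CO2. Seven-point five-fold dilution series (e.g. 50 μM to 3.2 nM), OneGlo luminescence read, curves fitted to Hill equation.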

[3] = tested on: SMN1-luciferase reporter; experiment: SMN1-luciferase reporter control cell line; assay type: cell-based, human; details: SMN1-luc reporter, FIG. 1
Source text: A cell-based quantitative high throughput screening (qHTS) assay is used to identify compounds able to increase SMN production. The assay uses a SMN2-luciferase reporter to determine if exon 7 of the SMN gene is expressed, which correlates with increased full-length SMN production from the SMN2 gene. As controls, a homologue SMN1-luciferase reporter cell line looks for variations in expression of the SMN1 gene and a cell line with just the luciferase reporter looks at the capacity of the compounds to inhibit luciferase. In addition, increments in SMN production by lead compounds were confirmed by Western-Blot analysis using SMA patient fibroblasts.
The SMN reporters used herein are modified from those previously described (M. L. Zhang, C. L. Lorson, E. J. Androphy and J. Zhou, An in vivo reporter system for measuring increased inclusion of exon 7 in SMN2 mRNA: potential therapy of SMA, Gene Ther 8 (2001), pp. 1532-1538.)
The sequence of the SMN1 reporter vector used herein is given in SEQ ID NO.:1, while that of the SMN2 reporter vector is given in SEQ ID NO.:2. […]

expression of SMN2 / levels of the full length SMN2 gene (in words) [2]: increases the expression of SMN2
SMILES: COc1nc(-c2ccccc2)nnc1-c1ccccc1 [MLS000763654]
SMN protein by Western blot (in words) [1]: concentration-dependent increase in SMN protein
expression of SMN1 (in words) [3]: reduces the expression of SMN1
